In patent US20250287942A1, “FORMULATIONS FOR REPELLING BEES AND OTHER INSECTS” (priority 2022, published 2025):

Assays:
[1] = TGA volatility at 40 degrees Celsius (Example 3); assay type: physicochemical; conditions: isothermal at 40° C. for 900 minutes, slope from 800-900 minutes
Protocol: Volatility may be measured by Thermogravimetric Analysis (TGA) method. Volatility of bee repellent compounds is measured by TGA at 40° C. (i.e., as bee repellent wt % loss per min at 40° C.). In some variations, a “high volatility” bee repellent compound has a volatility greater than 1E-04 (wt % loss/min at 40° C.). In some variations, a “low volatility” bee repellent compound has a bee repellent volatility less than 1E-04 (wt % loss/min at 40° C.).
A TA Instruments TGA5500 was used to determine the volatility of bee repellent chemicals at 40 degrees Celsius. The sample purge was set for 25 mL/min and the balance purge is set for 10 mL/min. A 30 mg sample of the chemical was placed in the sample pan, the temperature was ramped up to 40° C. at a rate of 10° C./min and was held isothermal at 40° C. for 900 minutes. The slope was then determined from 800-900 minutes to determine its volatility. The volatility of bee repellent compounds were determined according to Table 6 below.

[2] = test system: honey bee workers (Apis mellifera); test: 2-choice plate (petri-dish arena) assay, honey vs honey plus repellent candidate; assay type: in vivo; conditions: 2-choice plate assay; for First choice Preference Index (repellent side): first visit and drink (repellent - solvent)/(repellent + solvent); for Honey consumption Preference Index (repellent side): plates where honeybees drank more honey from (repellent - solvent)/(repellent + solvent)
Protocol: To date, we used capped brood frames from 10 colonies kept in three apiaries on campus at UC Riverside. After moving the brood (pupated honey bee larvae) into an observation frame inside an incubator overnight, we collected freshly emerged honey bee workers into groups of 80 per cage, providing them with a small piece of wax foundation, 50% sugar water and tap water ad libitum. Between day 3 and day 10 post emergence, we provided them with a protein dough. We removed dead workers and exchanged food every second day. After the bees reached foraging age (13-19 days post emergence), we grouped them into cages of 40 workers, each. To ensure that they were hungry enough to participate in our trials, we starved the workers before each experiment, depending on their age. Between 13 and 16 days of age, we wet-starved them for 17 hours by removing the sugar water tube from their cage, replacing it with an empty vial. Bees aged between 17 and 19 days were starved for six hours, only, to ensure their survival. On the day of the experiment, we removed dead bees and food vials from each cage, and placed the cage into a refrigerator, until the trial arena was ready, and the bees were cool enough to not move anymore.
To turn a 15 cm petri-dish into a 2-choice test arena, we taped a paper-grid on the outside of its bottom, establishing one side as honey (H) and the other as honey plus repellent candidate (HR, FIG. 3). Next, we pipetted 20 ul of pure acetone onto a 6 mm punch-out of filter paper, then let it evaporate in the fume hood for at least 30 min. We then taped the punch-out to the H-spot on the petri-dish. Repeating the process with 20 ul of the repellent candidate (5% in acetone), again letting the acetone evaporate for at least 30 Min, we stuck the now solely repellent-candidate-soaked punch-out onto the HR spot of the arena. To entice the bees to participate in our trial, we used a pipette and filled two 70 ul lids of PCR tubes full of pure, slightly warmed honey, until we observed a meniscus. We then taped one honey-filled lid onto the H, the other onto the HR filter paper, being careful not to disturb the meniscus.
We placed six prepared arenas onto a heating pillow turned onto level 1 (FIG. 2B), removed the cooled honey bee workers from the fridge and grouped between four and five bees into each plate, using insect tweezers. We filmed the bees for 60 Minutes, using an ipad (video at wide-angle, 0.5). To avoid glare, we staged the ipad on top of a plexi glass pane held by a cage constructed from pvc tubes, and covered with a double cotton sheet.
After each trial, we counted those plates, in which the honey wells had been touched as participating plates. We repeated the trials often enough to ensure participation in a minimum of five plates per repellent candidate. For each of the participating plates, we then screened each video to find the first bee that chose a honey well to drink from. The choice was recorded as either Honey (H) or Honey and repellent candidate (HR). We then calculated a Preference Index for each repellent candidate as follows: Number of repellent candidate choices minus number of honey choices) divided by sum of all choices).
The negative indexes indicate, that the honey bee workers did avoid the repellent candidates, but to varying degrees. The preference indexes show the first choices of honey bee workers (Apis mellifera) offered honey on filter paper with repellent-candidates versus honey only. Groups of 4-5 honeybee workers were placed in each 2-choice arena. Indexes are calculated per repellent candidate as (total number of repellent choices minus total number of solvent choices) divided by sum of all choices).
Preference Indexes for repellent candidates were determined in a manner similar to that described in Example 1. […]

[3] = TGA volatility method of Example 4; assay type: physicochemical; conditions: 40° C. isothermal for 15 hours, slope between 800-900 minutes
Protocol: Two BR3.3A (liquid) and BR 4.5 (solid) bee repellents were used in this example for comparison. BR 3.3A has a relatively higher volatility compared to BR 4.5. A TGA method was developed to characterize volatility of bee repellents. The volatility was measured by setting up a TGA method. In the TGA pan, 0.30 mg+0.02 mg of the bee repellent of interest is applied in an even layer on the bottom of the TGA pan immediately before starting the measurement. The TGA is programmed to have a balance purge flow of 40 mL/min and a sample purge flow of 60 mL/min. The TGA ramps from 25° C. to 40° C. at a rate of 5° C. per minute. Then the temperature is held isothermally at 40° C. for 15 hours. After the test has been completed, the slope is calculated for the % loss per minute between 800-900 minutes and the results are reported. The smaller the slope, the less the volatility. The volatility of BR3.3A measured by the above method has a slope of −4.61E-03%/min, and the slope for BR4.5 is −1.81E-04%/min.

honey bees = test: Field study on flowering buckwheat patches, honey bee counts; assay type: in vivo; conditions: emulsifiable concentrate sprayed at 4 kg/hectare; counts at 15 min, 30 min, 1 hour, 24 hours
Protocol: In this field study, 12 patches of buckwheat were planted, each measuring approximately 2 m×2 m in size in the agricultural operations field. When the flowering was estimated to be >50%, the experiments were performed. Each patch was divided into 2 approximately equal parts based on flowers by observation, one side for treatment spray and the other as control solvent (water) spray (FIG. 9A). The patches for different treatments were in a block design and the treatment side in a patch was randomly assigned as water or treatment (FIG. 9B). The test chemicals in emulsifiable concentrate form were dissolved in water in a tank to spray at the rate equivalent to 4 kg/hectare. After the spraying the numbers of honey bees present on each side of each patch was counted by 3 human observers at the following time points: 15 min, 30 min, 1 hour, 24 hours. The average number of bees at each time point were used to calculate the percentage decrease in numbers of bees on the treatment side relative to the water side and plotted (FIG. 9C).

SMILES	TGA volatility @ 40° C. (weight loss %/min) [1]	First choice Preference Index (repellent side) [2]	Honey consumption Preference Index (repellent side) [2]	% honey left on repellent side [2]	other results
CCOC(=O)CC1CCc2ccccc21 (stereo not shown) [ethyl 2-(2,3-dihydro-1H-inden-1-yl) acetate]	4.61E−03 weight loss %/min				
O=C(/C=C/c1cccnc1)c1ccncc1 [BR 4.4, 3-(3-Pyridinyl)-1-(4-pyridinyl)-2-propen-1-one]		−0.7142	−0.7143		
CCOCCCNC(=O)c1ccccc1I [BR 3.30, N-(3-ethoxypropyl)(2-iodophenyl) carboxamide]		−0.733	−0.8	80.45%	
CCCCCC(=O)c1ccccc1 [BR 3.5, Hexanophenone]		−1	−1	100%	
CCOCCCNC(=O)c1ccccc1I [N-(3-ethoxypropyl)-2-iodobenzamide]	2.16E−05 weight loss %/min				
CCN(CC)C(=O)c1cccc(C)c1 [DEET, N,N-diethyl-meta-toluamide, reference compound]	2.29E−03 weight loss %/min				
C/C(=C\C(=O)c1ccccc1)c1ccccc1 [BR 3.42, (2E)-1,3-Diphenyl-2-buten-1-on]		−0.772	−0.727		
CCOC(=O)c1ccccc1I [Ethyl 2-iodobenzoate]	6.66E−03 weight loss %/min				
CCCC(=O)CCc1ccccc1 [1-phenyl-3-hexanone]	1.37E−02 weight loss %/min				
CCNC(=O)c1cccc(Br)c1 [BR 3.47, 3-bromo-N-ethylbenzamide]		−1	−0.6666	95.42%	
COCCC(=O)Oc1ccccc1 [Phenyl 3-methoxypropanoate]	1.66E−02 weight loss %/min				
CCOC(=O)CC1CCc2ccccc21 (stereo not shown) [BR 3.3A, ethyl 2-(2,3-dihydro-1H-inden-1-yl)acetate]		−1	−1	95.83%	slope, % loss per minute (TGA volatility) [3]: −4.61E-03 %/min
CCCCCCCCC(C)=O [2-Decanone, reference compound]	0.1623 weight loss %/min				
CCOC(=O)c1ccccc1I [BR 3.81, Ethyl 2-iodobenzoate]		−0.9	−0.9	99.17%	numbers of honey bees on treatment side relative to water side (honey bees): showed a decrease in numbers of honey bees
CCNC(=O)c1cccc(Br)c1 [3-bromo-N-ethylbenzamide]	1.40E−04 weight loss %/min				
CCOCCC(=O)N1CCc2ccccc21 [BR 3.9, 1-(2,3-Dihydro-1H-indol-1-yl)-3-ethoxy-1-propanone]		−0.6	−0.8		
CC(C)OC(C(=O)c1ccccc1)c1ccccc1 (stereo not shown) [BR 4.5, 2-Isopropox y-1,2-diphenyl-ethanone]		−0.8947	−0.8947		slope, % loss per minute (TGA volatility) [3]: −1.81E-04 %/min
CCOC(=O)Cc1cccc(C)c1 [Ethyl m-Tolylacetate]	2.73E−02 weight loss %/min				
COCCC(=O)Oc1ccccc1 [BR 3.1, Phenyl 3-methoxy-propanoate]		−0.8333	−0.9166	99.17%	
CCOC(=O)CNc1ccccc1C#N [Ethyl 2-(2-Cyanoanilino) acetate]	4.04E−05 weight loss %/min				
CCCCCC(=O)c1ccccc1 [Hexanophenone]	1.11E−02 weight loss %/min				
CCCC(=O)CCc1ccccc1 [BR 3.4, 1-Phenyl-3-hexanone]		−1	−1	99.72%	
